Read-outs that look alike come from different tables or passages of the source.
Columns and labels:
[1] = system: Akt2; experiment: cIEF immunoassay of Akt2 and p-Akt2 (S474) in primary human subcutaneous preadipocytes; type: cell-based; details: for change of Akt2 cIEF electropherogram versus untreated control / change of Akt2 cIEF electropherogram versus insulin alone / increase of p-Akt2 (S474) compared to insulin treatment alone / p-Akt2 (S474) induction: 30 min; for change of Akt2 cIEF electropherogram versus untreated control: insulin 100 nM; for change of Akt2 cIEF electropherogram versus untreated control / increase of p-Akt2 (S474) compared to insulin treatment alone / p-Akt2 (S474) induction: cinnamaldehyde 40 µM, curcumin 20 µM; for change of Akt2 cIEF electropherogram versus untreated control / p-Akt2 (S474) induction: okadaic acid 5 nM, PTP1Bi 4 µM; for change of Akt2 cIEF electropherogram versus insulin alone / increase of p-Akt2 (S474) compared to insulin treatment alone: together with insulin 100 nM; for p-Akt2 (S474) induction: treatment without added insulin (insulin itself 100 nM)
Experimental: (§1) Primary human subcutaneous preadipocytes were obtained from Zen-Bio (Cat. No. SP-F-1, Lot #L031219A, Durham, NC, USA) and maintained at 37 °C and 5% CO2 in growth medium comprising Minimum Essential Medium α (cat. no. 12571063, Thermo Fisher Scientific, Waltham, MA, USA) supplemented with 10% fetal bovine serum, 100 units/mL penicillin, and 100 µg/mL streptomycin. […] The donor was undergoing elective surgery and signed an Institutional Review Board validated donor consent form that specifically lists both the intended uses for non-clinical research and confirms the procedures for processing the samples are Standard Operating Procedure managed Good Laboratory Practices protocols in compliance with ethical regulations. All samples were collected and processed in the United States.
(§2) Existing growth media of primary human subcutaneous preadipocytes were replaced with new growth media premixed with treatment compounds and incubated at 37 °C and 5% CO2 for 30 min prior to the collection of total cell extracts. The final concentrations of treatment compounds were as follows: insulin (100 nM, Humulin R, Eli Lilly, Indianapolis, IN, USA), cinnamaldehyde (40 µM, cat. no. W228613, Sigma Aldrich, St. Louis, MO, USA), curcumin (20 µM, cat. no. C7727, Sigma Aldrich, St. Louis, MO, USA), okadaic acid (5 nM, cat. no. ab120375, Cambridge, MA, USA), and PTP1Bi (4 µM, cat. no. 15782, Cayman Chem, Ann Arbor, MI, USA). The concentrations of treatment compounds were selected based on their ability to induce maximal effects on the PTM profile of Akt2, which were experimentally determined.
(§3) Approximately one million cells were incubated on ice for 10 min with 60 µL of lysis buffer (cat. no. 040-764, ProteinSimple, Santa Clara, CA, USA), sonicated 4 times for 5 s each, mixed by rotation for 2 h at 4 °C, and centrifuged at 12,000 rpm in an Eppendorf 5430R microfuge for 20 min at 4 °C. The supernatant was collected as the cell lysate. The total protein concentration in the cell lysate was determined with a Bradford protein assay and adjusted to a final concentration of 0.3 µg/µL with separation gradients (cat. no. Premix G2, pH 5–8, ProteinSimple, Santa Clara, CA, USA) for charge-based cIEF immunoassays.
(§4) Cell lysates in separation gradients were loaded into 384-well assay plates (cat. no. 040-663, ProteinSimple, Santa Clara, CA, USA), which were preloaded with primary and secondary antibodies and chemiluminescent substrates. Charge-based protein separation and detection in individual capillaries were performed using the default protocols of the NanoPro 1000 system (ProteinSimple, Santa Clara, CA, USA). HSP70 was used as the loading control. All cIEF immunoassays were performed in triplicate for each protein, and triplicate experiments were performed for each treatment condition, producing nine repeated measurements per protein analyte.
(§5) Protein abundance was quantified using the Compass software from ProteinSimple (Santa Clara, CA, USA) and normalized with that of HSP70 for cIEF immunoassays or β-actin for capillary Western assays. HSP70 and β-actin served as loading controls.

[2] = system: pan-Akt; experiment: cIEF immunoassay of pan-Akt phosphoisoforms in primary human subcutaneous preadipocytes; type: cell-based; details: 30 min, versus untreated control
Experimental: as §1, §2, §3, §4, §5

[3] = system: ERK1/2; experiment: cIEF immunoassay of ERK1/2 phosphorylation; type: cell-based, human; details: following treatment
Experimental: as §2
as §4, with “All cIEF immunoassays were performed in triplicate for each protein, and triplicate experiments were performed for each treatment condition, producing nine repeated measurements per protein analyte.” left out

[4] = system: Akt3; experiment: cIEF immunoassay of Akt3 in primary human subcutaneous preadipocytes; type: cell-based; details: for effect on Akt3 cIEF electropherogram: 30 min; for effect on insulin-stimulated phosphorylation of Akt3: with insulin
Experimental: as §1, §2, §3, §4, §5

[5] = system: Akt1; experiment: cIEF immunoassay of Akt1 in primary human subcutaneous preadipocytes; type: cell-based; details: for effect on Akt1 cIEF electropherogram: 30 min; for effect on insulin-stimulated phosphorylation of Akt1: with insulin, cIEF of p-Akt1 (S473) and standard Western
Experimental: as §1, §2, §3, §4, §5

[6] = biological target: T1, PTP1B (Homo sapiens, UniProt P18031); experiment: Protein tyrosine phosphatase assay (malachite green), recombinant PTP1B; type: biochemical; details: 30 min, room temperature, read-out: IC50, PTP1B inhibition
T1 construct: purchased Cayman Chem 10010896
T1 sequence (P18031 1-321 limits assumed): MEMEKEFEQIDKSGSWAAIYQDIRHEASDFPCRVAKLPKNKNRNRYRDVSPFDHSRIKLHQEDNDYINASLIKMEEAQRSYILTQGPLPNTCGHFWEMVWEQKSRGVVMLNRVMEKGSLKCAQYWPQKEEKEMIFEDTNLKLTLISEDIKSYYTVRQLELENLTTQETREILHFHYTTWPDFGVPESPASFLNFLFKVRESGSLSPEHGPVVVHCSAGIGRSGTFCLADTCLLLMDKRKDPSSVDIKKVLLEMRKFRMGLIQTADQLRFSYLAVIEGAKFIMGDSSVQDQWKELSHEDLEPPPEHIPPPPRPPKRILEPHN
Experimental: (§6) Ser/Thr phosphatase assay kit (cat. no. 17-127, Millipore, Temecula, CA, USA) was used to detect PP2A activity by dephosphorylation of the phosphopeptide R-K-pT-I-R-R using malachite green detection. Likewise, a protein tyrosine phosphatase assay kit (cat. no. 17-125, Millipore, Burlington, MA, USA) was used to detect PTP1B activity by dephosphorylation of the phosphopeptide R-R-L-I-E-D-A-E-pY-A-A-R-G using malachite green detection. Experimental procedures were performed according to the manufacturer’s protocols. Recombinant PP2A (cat. no. 10011237, Cayman Chem, Ann Arbor, MI, USA) and PTP1B (cat. no. 10010896, Cayman Chem, Ann Arbor, MI, USA) were used. Dephosphorylation reactions were performed at room temperature for 30 min in the presence of serially diluted okadaic acid, PTP1Bi, cinnamaldehyde, or curcumin. The reactions were terminated by the addition of […] malachite green solution and allowed color development to proceed for 15 min at room temperature. Phosphatase activities were measured using absorbance at 650 nm in a microtiter plater reader (Synergy 2, BioTek, Winooski, VT, USA).

[7] = biological target: T2, PP2A (Homo sapiens, UniProt P67775); experiment: Ser/Thr phosphatase assay (malachite green), recombinant PP2A; type: biochemical
T2 construct: purchased Cayman Chem 10011237
Experimental: as §6

[8] = system: pan-Akt; experiment: Capillary Western immunoassay of p-Akt in primary human subcutaneous preadipocytes; type: cell-based; details: insulin 30 min
Experimental: as §1, §2
The total protein concentration in the cell lysate was determined with a Bradford protein assay and adjusted to a final concentration of 0.4 µg/µL with denaturing buffers (cat. no. PS-ST01EZ or PS-ST03EZ, ProteinSimple, Santa Clara, CA, USA) for size-based Western immunoassays. […]
Protein abundance was quantified using the Compass software from ProteinSimple (Santa Clara, CA, USA) and normalized with that of HSP70 for cIEF immunoassays or β-actin for capillary Western assays. […]

[9] = recombinant PP2A, 30 min, room temperature, read-out: IC50, PP2A inhibition

T2 sequence (P67775 1-308 limits assumed): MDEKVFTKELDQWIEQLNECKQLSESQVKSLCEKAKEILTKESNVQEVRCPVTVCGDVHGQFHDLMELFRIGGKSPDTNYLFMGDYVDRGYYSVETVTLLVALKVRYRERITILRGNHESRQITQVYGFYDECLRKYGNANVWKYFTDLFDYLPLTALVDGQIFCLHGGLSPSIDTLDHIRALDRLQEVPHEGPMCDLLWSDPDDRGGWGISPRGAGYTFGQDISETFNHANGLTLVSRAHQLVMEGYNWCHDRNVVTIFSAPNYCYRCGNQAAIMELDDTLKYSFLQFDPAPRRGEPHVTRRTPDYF

Compound | abundance of p-Akt (S124) at pI 5.74 [2] | abundance of p-Akt (S246) at pI 5.74 [2] | abundance of p-Akt (Y475) at pI 5.74 [2] | effect on p-Akt (T308) [2] | p-Akt (T450) phosphorylation [2] | ERK1/2 phosphorylation [3] | effect on Akt3 cIEF electropherogram [4] | effect on insulin-stimulated phosphorylation of Akt3 [4] | effect on Akt1 cIEF electropherogram [5] | effect on insulin-stimulated phosphorylation of Akt1 [5] | change of Akt2 cIEF electropherogram versus untreated control [1] | change of Akt2 cIEF electropherogram versus insulin alone [1] | increase of p-Akt2 (S474) compared to insulin treatment alone [1] | p-Akt2 (S474) induction [1] | IC50 [6] [µM] | IC50 [7, 9] [µM] | also measured
O=c1cc(N2CCOCC2)oc2c(-c3ccccc3)cccc12 [LY294002, reference compound] | – | – | – | – | – | – | – | – | – | – | – | – | – | – | – | – | effect on cinnamaldehyde or curcumin-induced phosphorylation of Akt2 ([1]; PI3K inhibitor with cinnamaldehyde or curcumin): unable to inhibit; effect on insulin-stimulated phosphorylation of Akt2 ([1]; PI3K inhibitor with insulin): abrogates
O=C/C=C/c1ccccc1 [cinnamaldehyde] | increased the abundance | increased the abundance | increased the abundance | no observable effect | increased phosphorylation at the T450 residue | increased ERK1/2 phosphorylation | neither cinnamaldehyde or curcumin had any observable effect | no observable effect | neither cinnamaldehyde or curcumin had any observable effect | promote insulin-stimulated phosphorylation of Akt1 | new peak at pI 5.41 | induced the appearance of a new Akt2 isoform at pI 5.15 | approximately 3.5 fold | Neither untreated control preadipocytes or preadipocytes treated with cinnamaldehyde or curcumin had a detectable level | ~4 | ~40 | –
COc1cc(/C=C/C(=O)CC(=O)/C=C/c2ccc(O)c(OC)c2)ccc1O [curcumin] | increased the abundance | increased the abundance | increased the abundance | no observable effect | increased phosphorylation at the T450 residue | increased ERK1/2 phosphorylation | neither cinnamaldehyde or curcumin had any observable effect | no observable effect | neither cinnamaldehyde or curcumin had any observable effect | promote insulin-stimulated phosphorylation of Akt1 | new peak at pI 5.41 | induced the appearance of a new Akt2 isoform at pI 5.15 | approximately 3.5 fold | Neither untreated control preadipocytes or preadipocytes treated with cinnamaldehyde or curcumin had a detectable level | ~25 | ~20 | –
C=C1[C@@H](O)[C@@H]2O[C@]3(CC[C@H](/C=C/[C@@H](C)[C@@H]4CC(C)=C[C@@]5(O[C@H](C[C@@](C)(O)C(=O)O)CC[C@H]5O)O4)O3)CC[C@H]2O[C@@H]1[C@@H](O)C[C@H](C)[C@H]1O[C@@]2(CCCCO2)CC[C@H]1C [okadaic acid, reference compound] | – | – | – | – | – | – | – | – | – | – | induced the appearance of a new Akt2 isoform at pI 5.20 | – | – | Neither okadaic acid nor PTP1Bi treatment individually was capable of inducing | – | – | IC50 [7]: ~0.0005 µM
insulin [reference compound] | – | – | – | – | – | – | induced the appearance of new Akt2 and Akt3 isoforms at low pI values | – | no observable effect | – | pI 5.20 and 5.30 | – | – | induced the appearance of p-Akt2 (S474) | – | – | abundance of p-Akt (S473) [8]: increased the abundance; abundance of p-Akt (T308) [8]: increased the abundance; abundance of p-Akt (T450) [8]: increased the abundance

— article PMC9416494, “Cinnamaldehyde and Curcumin Prime Akt2 for Insulin-Stimulated Activation” (Nutrients, 2022)
